Measured values reported in ChEMBL document CHEMBL1201862, “PubChem BioAssay data set” (2004).
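Briefly, cells in 96-well plates were exposed to five compound concentrations for 48 h, and endpoints were estimated by linear interpolation. GI50 = concentration required for 50% inhibition of growth.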 Active and inactive are the calls of the source. Rule as the data show it: active = GI50 up to about 1.1 µM and inactive = higher.

Assays:
Assay in all cases: DTP human tumour cell line panel, 48 h
[1] = system: SF-268
[2] = system: DU-145
[3] = system: U-251
[4] = system: 786-0
[5] = system: TK-10
[6] = system: HL-60
[7] = system: BT-549
[8] = system: KM12
[9] = system: K562
[10] = system: HCT-15
[11] = system: MDA-MB-435
[12] = system: NCI-H522
[13] = system: Hs-578T
[14] = system: SNB-75
[15] = system: MCF7
[16] = system: SF-295
[17] = system: NCI-H23
[18] = system: MDA-MB-231
[19] = system: CCRF-CEM
[20] = system: SN12C
[21] = system: SNB-19
[22] = system: NCI/ADR-RES
[23] = system: RPMI-8226
[24] = system: A549
[25] = system: SR
[26] = system: COLO 205
[27] = system: OVCAR-4
[28] = system: T47D
[29] = system: UACC-62
[30] = system: ACHN
[31] = system: HCC 2998
[32] = system: OVCAR-8
[33] = system: Malme-3M
[34] = system: HT-29
[35] = system: SF-539
[36] = system: HCT-116
[37] = system: OVCAR-3
[38] = system: M14
[39] = system: SK-MEL-28
[40] = system: SK-OV-3
[41] = system: SK-MEL-5
[42] = system: SW-620
[43] = system: LOX IMVI
[44] = system: UACC-257
[45] = system: MOLT-4
[46] = system: HOP-92
[47] = system: IGROV-1
[48] = system: HOP-62
[49] = system: OVCAR-5
[50] = system: CAKI-1
[51] = system: PC-3
[52] = system: UO-31
[53] = system: SK-MEL-2
[54] = system: NCI-H226
[55] = system: NCI-H460
[56] = system: MDA-N
[57] = system: EKVX
[58] = system: RXF 393

CC1(C)CNC(=O)C2(CCCO2)CNC(C)(C)CNC(=O)C2(CCCO2)CN1 (centres undefined)
GI50 [1]: > 10 µM (inactive)
GI50 [2]: > 10 µM (inactive)
GI50 [3]: > 10 µM (inactive)
GI50 [4]: > 10 µM (inactive)
GI50 [5]: > 10 µM (inactive)
GI50 [6]: > 10 µM (inactive)
GI50 [7]: > 10 µM (inactive)
GI50 [8]: > 10 µM (inactive)
GI50 [9]: > 10 µM (inactive)
GI50 [10]: > 10 µM
GI50 [11]: > 10 µM (inactive)
GI50 [12]: > 10 µM (inactive)
GI50 [13]: > 10 µM (inactive)
GI50 [14]: > 10 µM (inactive)
GI50 [15]: > 10 µM (inactive)
GI50 [16]: > 10 µM (inactive)
GI50 [17]: > 10 µM (inactive)
GI50 [18]: > 10 µM (inactive)
GI50 [19]: > 10 µM (inactive)
GI50 [20]: > 10 µM (inactive)
GI50 [21]: > 10 µM (inactive)
GI50 [22]: > 10 µM (inactive)
GI50 [23]: > 10 µM (inactive)
GI50 [24]: > 10 µM (inactive)
GI50 [25]: > 10 µM (inactive)
GI50 [26]: > 10 µM (inactive)
GI50 [27]: > 10 µM (inactive)
GI50 [28]: > 10 µM (inactive)
GI50 [29]: > 10 µM (inactive)
GI50 [30]: > 10 µM (inactive)
GI50 [31]: > 10 µM (inactive)
GI50 [32]: > 10 µM (inactive)
GI50 [33]: > 10 µM (inactive)
GI50 [34]: > 10 µM (inactive)
GI50 [35]: > 10 µM (inactive)
GI50 [36]: > 10 µM (inactive)
GI50 [37]: > 10 µM (inactive)
GI50 [38]: > 10 µM (inactive)
GI50 [39]: > 10 µM (inactive)
GI50 [40]: > 10 µM (inactive)
GI50 [41]: > 10 µM (inactive)
GI50 [42]: > 10 µM (inactive)
GI50 [43]: > 10 µM (inactive)
GI50 [44]: > 10 µM (inactive)
GI50 [45]: > 10 µM (inactive)
GI50 [46]: > 10 µM (inactive)
GI50 [47]: > 10 µM (inactive)
GI50 [48]: > 10 µM (inactive)
GI50 [49]: > 10 µM (inactive)
GI50 [50]: > 10 µM (inactive)
GI50 [51]: > 10 µM (inactive)

C=C(C)C1Cc2c(cc(OC)c3c(=O)c4cccc(O)c4oc23)O1 (centres undefined)
GI50 [1]: 20.4 µM (inactive)
GI50 [2]: 45.8 µM (inactive)
GI50 [3]: 16.8 µM (inactive)
GI50 [4]: 18.9 µM (inactive)
GI50 [5]: 19.9 µM (inactive)
GI50 [6]: 39.9 µM (inactive)
GI50 [7]: 17.9 µM (inactive)
GI50 [8]: 46.5 µM (inactive)
GI50 [9]: > 100 µM (inactive)
GI50 [10]: 47.6 µM
GI50 [12]: 16.6 µM (inactive)
GI50 [13]: 25.6 µM (inactive)
GI50 [14]: 16.3 µM (inactive)
GI50 [15]: 0.024 µM (active)
GI50 [16]: 17.3 µM (inactive)
GI50 [17]: 26 µM (inactive)
GI50 [18]: 23.9 µM (inactive)
GI50 [52]: 18 µM (inactive)
GI50 [19]: 74.6 µM (inactive)
GI50 [20]: 28.6 µM (inactive)
GI50 [53]: 18.6 µM (inactive)
GI50 [21]: 26.3 µM (inactive)
GI50 [22]: 24.8 µM (inactive)
GI50 [24]: 31.8 µM (inactive)
GI50 [25]: 36.1 µM (inactive)
GI50 [26]: 56.9 µM (inactive)
GI50 [27]: 18.7 µM (inactive)
GI50 [28]: 16.6 µM (inactive)
GI50 [54]: 21.2 µM (inactive)
GI50 [29]: 18 µM (inactive)
GI50 [30]: 18.2 µM (inactive)
GI50 [31]: 34.1 µM (inactive)
GI50 [32]: 21.6 µM (inactive)
GI50 [33]: 25.2 µM (inactive)
GI50 [34]: 67.1 µM (inactive)
GI50 [35]: 18.4 µM (inactive)
GI50 [36]: 24.8 µM (inactive)
GI50 [55]: 28.6 µM (inactive)
GI50 [38]: 24.1 µM (inactive)
GI50 [39]: 25.5 µM (inactive)
GI50 [40]: 19.5 µM (inactive)
GI50 [56]: 20 µM (inactive)
GI50 [41]: 16.5 µM (inactive)
GI50 [42]: 53.1 µM (inactive)
GI50 [43]: 5.7 µM (inactive)
GI50 [44]: 33 µM (inactive)
GI50 [45]: > 100 µM (inactive)
GI50 [47]: 18.4 µM (inactive)
GI50 [48]: 18.6 µM (inactive)
GI50 [57]: > 100 µM (inactive)
GI50 [49]: 72.9 µM (inactive)
GI50 [58]: 19.4 µM (inactive)
GI50 [50]: 16.6 µM (inactive)
GI50 [51]: 38.2 µM (inactive)

CC1(C)OC2[C@@H](CO[C@@]3([C@@H](O)CCO)OC(C)(C)O[C@@H]23)O1 (some centres undefined)
GI50 [1]: > 100 µM (inactive)
GI50 [2]: > 100 µM (inactive)
GI50 [3]: > 100 µM (inactive)
GI50 [4]: > 100 µM (inactive)
GI50 [5]: > 100 µM (inactive)
GI50 [6]: > 100 µM (inactive)
GI50 [7]: > 100 µM (inactive)
GI50 [8]: > 100 µM (inactive)
GI50 [9]: > 100 µM (inactive)
GI50 [10]: > 100 µM
GI50 [11]: > 100 µM (inactive)
GI50 [12]: > 100 µM (inactive)
GI50 [14]: > 100 µM (inactive)
GI50 [15]: > 100 µM (inactive)
GI50 [16]: > 100 µM (inactive)
GI50 [17]: > 100 µM (inactive)
GI50 [18]: > 100 µM (inactive)
GI50 [52]: > 100 µM (inactive)
GI50 [19]: > 100 µM (inactive)
GI50 [20]: > 100 µM (inactive)
GI50 [53]: > 100 µM (inactive)
GI50 [21]: > 100 µM (inactive)
GI50 [22]: > 100 µM (inactive)
GI50 [23]: > 100 µM (inactive)
GI50 [25]: > 100 µM (inactive)
GI50 [26]: > 100 µM (inactive)
GI50 [27]: > 100 µM (inactive)
GI50 [28]: > 100 µM (inactive)
GI50 [54]: > 100 µM (inactive)
GI50 [29]: > 100 µM (inactive)
GI50 [30]: > 100 µM (inactive)
GI50 [31]: > 100 µM (inactive)
GI50 [32]: > 100 µM (inactive)
GI50 [34]: > 100 µM (inactive)
GI50 [35]: > 100 µM (inactive)
GI50 [36]: > 100 µM (inactive)
GI50 [55]: > 100 µM (inactive)
GI50 [37]: > 100 µM (inactive)
GI50 [38]: > 100 µM (inactive)
GI50 [39]: > 100 µM (inactive)
GI50 [56]: > 100 µM (inactive)
GI50 [41]: > 100 µM (inactive)
GI50 [42]: > 100 µM (inactive)
GI50 [43]: > 100 µM (inactive)
GI50 [44]: > 100 µM (inactive)
GI50 [45]: > 100 µM (inactive)
GI50 [46]: > 100 µM (inactive)
GI50 [47]: > 100 µM (inactive)
GI50 [48]: > 100 µM (inactive)
GI50 [57]: > 100 µM (inactive)
GI50 [49]: > 100 µM (inactive)
GI50 [58]: > 100 µM (inactive)
GI50 [50]: > 100 µM (inactive)
GI50 [51]: > 100 µM (inactive)
